Laboratory results published in PubChem BioAssay (NCI).
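Test compounds were applied to cells in 96-well plates for 48 hours at 5 doses. At the GI50, growth is halved. TGI denotes the concentration required for complete inhibition of growth.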

Tests used:
Assay in all cases: NCI-60 cell line screen, 48 h
[1] = tested on: UACC-62 melanoma
[2] = tested on: SF-539 CNS
[3] = tested on: TK-10 renal
[4] = tested on: NCI-H23 lung
[5] = tested on: OVCAR-3 ovarian
[6] = tested on: RPMI-8226 leukemia
[7] = tested on: UO-31 renal
[8] = tested on: HOP-62 NSCLC
[9] = tested on: MCF7 breast
[10] = tested on: T-47D breast

Compound	TGI [1] [µM]	TGI [2] [µM]	TGI [3] [µM]	TGI [4] [µM]	TGI [5] [µM]	TGI [6] [µM]	TGI [7] [µM]	TGI [8] [µM]	TGI [9] [µM]	TGI [10] [µM]	GI50 [8] [nM]	GI50 [2] [nM]	GI50 [3] [nM]	GI50 [4] [nM]	GI50 [9] [nM]	GI50 [10] [nM]	GI50 [5] [nM]	GI50 [6] [nM]	GI50 [7] [nM]
COCCOCOC(C)(C)[C@H](CCO)O[Si](c1ccccc1)(c1ccccc1)C(C)(C)C	28.3	27.4	23	35.9	22.2	35.5	26.9	–	–	–	–	–	–	–	–	–	–	–	–
CN(CCNC(=S)c1cn(C)c2c1ccc1ccccc12)CCNC(=S)c1cn(C)c2c1ccc1ccccc12	> 100	> 100	> 100	> 100	> 100	–	> 100	> 100	> 100	28.6	–	–	–	–	–	–	–	–	–
C/C(N=NS(=O)(=O)c1ccc(C)cc1)=C1\C=CC=CN1O	> 100	> 100	> 100	> 100	> 100	> 100	> 100	> 100	–	–	–	–	–	–	–	–	–	–	–
O=C1c2ccccc2C(=O)c2c1cc1c(c2[N+](=O)[O-])OCO1	–	6.31	6.39	8.29	4.77	0.916	6.02	5.19	7.29	6.33	1740	1710	2380	2400	1000	551	1430	267	1540
C[C@@]1(OC(=O)c2cc([N+](=O)[O-])cc([N+](=O)[O-])c2)C[C@@H]2CCCC[C@@H]21	> 100	> 100	> 100	> 100	–	> 100	> 100	> 100	> 100	> 100	–	–	–	–	–	–	–	–	–
CC(=O)N(CC(=O)C(=O)NNc1ccoc1)c1ccc(Cl)cc1	–	> 100	> 100	> 100	> 100	> 100	> 100	> 100	> 100	> 100	–	–	–	–	–	–	–	–	–
O=S(=O)(O)c1ccc2cc(N=Nc3c(O)ccc4ccccc34)ccc2c1	> 100	> 100	> 100	> 100	> 100	–	> 100	> 100	> 100	> 100	–	–	–	–	–	–	–	–	–
BrCc1ccc(CBr)c2c1-c1c(CBr)ccc3ccc(CBr)c-2c13	> 100	> 100	> 100	–	> 100	> 100	> 100	> 100	> 100	> 100	–	–	–	–	–	–	–	–	–
O=C(Nc1nc2ncn(CCO)c2c(=O)[nH]1)c1ccccc1	> 100	> 100	> 100	–	> 100	> 100	> 100	> 100	–	–	–	–	–	–	–	–	–	–	–
C[C@H](NC(=O)CNC(=O)CCCCCC(=O)NCC(=O)N[C@@H](C)C(=O)OCc1ccccc1)C(=O)OCc1ccccc1	> 100	> 100	> 100	> 100	> 100	> 100	–	> 100	> 100	> 100	–	–	–	–	–	–	–	–	–
Nc1c(Cl)cc(-c2nc3ccccc3s2)cc1Cl	> 100	> 100	> 100	–	> 100	–	> 100	> 100	> 100	> 100	–	–	–	–	–	–	–	–	–
COC(=O)c1ccc(C=C(C#N)C#N)cc1	57.6	39.8	79.1	38.4	67.5	72.6	–	74.8	–	–	–	–	–	–	–	–	–	–	–
Cc1ccc(/N=N/C(=NNC(=O)c2ccc(C)cc2)c2ccc(N(C)C)cc2)cc1	23.4	> 100	> 100	69.3	54.2	70.5	68	–	46.2	> 100	–	–	–	–	–	–	–	–	–
c1cncc(CSc2ncnc3nc[nH]c23)c1	> 100	–	> 100	> 100	> 100	–	> 100	> 100	> 100	> 100	–	–	–	–	–	–	–	–	–
O=c1ccn(/C=C/C(O)C(O)CO)c(=O)[nH]1 (stereo not given)	> 100	> 100	> 100	> 100	> 100	> 100	> 100	> 100	–	–	–	–	–	–	–	–	–	–	–
CCCC(=O)OCOC(=O)N(C)N=Nc1ccc(C(=O)OCC)cc1	44.2	–	> 100	66.4	> 100	> 100	> 100	> 100	45.5	> 100	–	–	–	–	–	–	–	–	–
CS(=O)(=O)C1(Br)S(=O)(=O)OCCOS1(=O)=O	> 100	> 100	> 100	> 100	> 100	> 100	> 100	> 100	–	–	–	–	–	–	–	–	–	–	–
CCOP(=O)(OCC)C(Cc1ccc(Cl)cc1)NS(=O)(=O)c1ccc(C)cc1 (stereo not given)	> 100	> 100	> 100	> 100	> 100	> 100	–	> 100	> 100	> 100	–	–	–	–	–	–	–	–	–
CSc1ccc2c(cc1=O)C(NC(=O)c1ccc(C#N)cc1)CCc1cc(O)c(O)c(O)c1-2 (stereo not given)	46.3	36.1	> 100	71.3	> 100	–	> 100	> 100	–	–	–	–	–	–	–	–	–	–	–
Cc1ccc(/C=C2\Cc3cc(C)c(C)cc3C2=O)c(C(=O)O)c1	> 100	74.7	> 100	–	> 100	> 100	> 100	> 100	> 100	> 100	–	–	–	–	–	–	–	–	–
COc1ccc(NC(=O)C(=O)Cc2nc3ccc(C(=O)c4ccccc4)cc3[nH]c2=O)c([N+](=O)[O-])c1	78.5	> 100	> 100	65.4	> 100	–	67.6	> 100	> 100	68.9	–	–	–	–	–	–	–	–	–
S=C(N/N=C/c1ccccn1)N1CCCCCC1	0.364	0.305	38	> 58.6	9.3	0.491	4.76	–	25.3	–	–	–	–	–	–	–	–	–	–
Nc1nc2ncn(CC(O)CO)c2c(=O)[nH]1 (stereo not given)	> 100	> 100	> 100	–	> 100	> 100	> 100	> 100	–	–	–	–	–	–	–	–	–	–	–
